In patent US20240269104A1, “METHOD FOR TREATING PARKINSON'S DISEASE” (Olatec Therapeutics, Inc., priority 2021, published 2024):

How the values were obtained:
IL-1β = IL-1β in brain homogenates by ELISA after MPTP; type: in vivo, mice; conditions: 200 mg/kg once each day; 4 days after MPTP-acute
Excerpt: (§1) It has been reported that administration of MPTP induces the assembly of NLPR3 inflammasome in the brain. Mice were sacrificed after anesthesia by cervical dislocation at 4 and 7 days after MPTP administration. Brains were collected, and the striatum (St) and ventral midbrain (VM) areas of both hemispheres were excised and frozen in liquid nitrogen. Samples were homogenized in RIPA buffer (Thermo Fisher, Waltham, MA) supplemented with protease inhibitor (Thermo Fisher) using a TissueRuptor (Qiagen, Germantown, MD). Protein concentration was determined using a BCA Protein Assay Kit (Thermo Fisher) according to manufacturer's instructions. Samples were diluted to 2 mg/ml in the same extraction buffer.
(§2) Levels of IL-1β, IL-18, IL-6, and IL-17A from brain homogenates were measured by ELISA DuoSet kit (R&D Systems, Minneapolis, MN). ELISA kit for IL-1β detects 92-95% of the 17 kDa form and only 8-5% of the precursor form of this cytokine. 96-well plates (ThermoFisher Scientific) were coated with capture antibody. Samples were incubated for two hours at room temperature. Detection antibodies and streptavidin-HRP were added. TMB ELISA (cBioscience, San Diego, CA) was used as substrate solution. Results were measured in a microplate reader (Bio-Tek, Santa Clara, CA). Final values were normalized by the protein concentration of each sample. 4-5 mice per group were used for each cytokine.

[1] = test system: MPTP-injected-mouse model of PD; assay: accelerating rotarod test after MPTP-acute administration; type: in vivo, C56BL/J mice
Protocol: MPTP (Sigma-Aldrich, St. Louis, MO) can be administered at two dose regimens: acute and sub-acute. For the acute regimen, MPTP was administered intraperitoneally (i.p.) four times in one day. Administrations were performed every two hours over an eight-hour period. For the subacute regimen, mice received a single i.p. administration of MPTP per day for five consecutive days. A 20 mg/kg free-base MPTP dose was used for every dose in both models. Sterile saline was used as the vehicle. Control mice were injected with saline solution using the same administration protocol and were defined as sham. Mice were sacrificed at different days after the first injection of MPTP. We used the acute protocol in C56BL/J mice to study dopamine neurodegeneration, inflammation, and motor deficits, whereas the subacute model was used to evaluate α-synuclein aggregation in the following examples. […]
The accelerating rotarod (Ugo Basile, Gemonio, ITALY) was used to evaluate locomotor function in mice subjected to the MPTP-acute administration. An accelerating program was selected to detect locomotor impairments associated to MPTP (Keshet et al, J Comp Neurol 504:690-701, 2007; Rui et al., Int J Neuropsychopharmacol., 2020). We used a rotarod device with a cylinder rod of three centimeters in diameter. The mice underwent a training period of three consecutive days prior to MPTP administration. In each training session, mice were subjected to run at four constant speeds (10 rpm, 20 rpm, 30 rpm, and 40 rpm) for 150 seconds at each speed. If mice fell during that time, they were put back in the rotarod immediately. On the testing day, we used an increased-speed program. Mice were placed on the rotarod device for 150 seconds at 30 rpm as warm up. Immediately after 150 seconds, the accelerating session started, and the speed increased from 30 rpm to 70 rpm for 500 seconds. Time to fall was recorded. Accelerating sessions were repeated three times with a resting interval of five minutes between sessions. Average time to fall per mouse was calculated and used as final measurement.
We then evaluated the effect of dapansutrile. To avoid overloading animals with fluid (which can lead to fatal heart failure), dapansutrile was administered through oral gavage at 200 mg/kg in water. Dapansutrile was given 30 minutes before the first injection of MPTP. Mice treated with saline were used as control. We also included a sham-group that received saline through intraperitoneal injections instead of MPTP. […]

[2] = brain levels of dapansutrile after fortified feed pellets; type: in vivo, mice; conditions: oral
Protocol: Mice were treated with dapansutrile by ad libitum consumption of dapansutrile-fortified feed pellets (7.5 g/kg) for 21 days. Control mice received a matching unfortified diet without dapansutrile. Mice were monitored during the study for any changes in physiological parameters, including irregular weight gain or loss as well as changes in body temperature. On day 21, mice were sacrificed, and brains were isolated. Dapansutrile measurements in the whole brain homogenates were performed at Syneos Health (Princeton, NJ). Five mice per group were assessed. […] The ability of dapansutrile to cross BBB even when delivered orally provides a potential advance for the treatment of chronic patients like PD.

IL-6 = IL-6 in brain homogenates by ELISA after MPTP; type: in vivo, mice; conditions: 200 mg/kg once each day; seven days after MPTP-acute
Excerpt: as §1, §2

TREM2 = TREM2 immunoblotting in the striatum after MPTP-acute administration; type: in vivo, mice; conditions: 200 mg/kg once each day; day 4 after MPTP-acute
Protocol: In this example, we measured the levels of […] (TREM2) after dapansutrile treatment. TREM2 may be a potential target for treating PD. For TREM2, mice were sacrificed at day 4 after MPTP-acute administration. The St was excised, and proteins were extracted and quantified as described in Example 9. 30 μg of protein per sample were resolved in a Mini-PROTEAN TGX 4-20% gradient gel (Bio-Rad, Hercules, CA) in 0.1% SDS running buffer (Bio-Rad). The gel was transferred to a […] nitrocellulose membrane (GE Healthcare, Chicago, IL). Membranes were blocked with 5% blocking buffer (Bio-Rad) in TBS 0.1% (v/v) Tween solution for one hour at room temperature. Samples were incubated overnight with primary antibody for mouse TREM2 (1:1000, Cell Signaling, Danvers, MA). Peroxidase-conjugated secondary antibody (Jackson ImmunoResearch, Philadelphia, PA) and chemiluminescence were used to detect the protein concentration. Conjugated antibody against β-actin (Santa Cruz Biotechnology, Dallas, TX) was used to normalize protein concentrations. Protein bands for monomeric and oligomeric forms of each individual mice were quantified using NIH ImageJ software. Four mice per group were used.

[3] = 200 mg/kg once a day, three days after MPTP-acute
[4] = 200 mg/kg oral gavage 30 minutes before first MPTP injection, day 3 after MPTP
[5] = fortified feed pellets, 21 days

concentration at 21 days ([2]; mouse, brain (whole brain homogenate), fortified feed pellets 7.5 g/kg ad libitum, whole brain homogenates, read-out: dapansutrile level in the brain): 47000 ng/g | brain level relative to concentration required to inhibit the NLRP3 assembly [2, 5]: at least 30 times | crossing of the blood-brain barrier [2, 5]: readily crosses the BBB
SMILES: CS(=O)(=O)CCC#N [dapansutrile, 3-methanesulfonylpropionitrile]
levels of IL-1β in the ventral midbrain (VM) (IL-1β): no changes associated to dapansutrile | reduction of levels of IL-1β in the striatum (St) (IL-1β): 24% | time to fall on accelerating rotarod versus MPTP+saline ([1]; 60 mg/kg once a day, three days after MPTP-acute): did not show any significant improvement | mice that reached 8 cm/s on the rotarod [1, 3]: 7% | mice that reached the 7 cm/s speed on the rotarod [1, 3]: approximately 50% | time to fall on accelerating rotarod versus MPTP+saline [1, 3]: doubling | time to fall on accelerating rotarod versus sham mice [1, 3]: nearly the same as the sham mice | rotarod latency to fall, difference against sham group [1, 4]: not significant differences | time on the rotarod more than mice treated with water (latency to fall) [1, 4]: around 90 seconds | levels of IL-6 in the ventral midbrain (VM) (IL-6): No effects were detected | reduction of levels of IL-6 in the striatum (St) (IL-6): 26% | levels of 35 kDa-glycosylated form of TREM2 in the striatum (TREM2): no changes | levels of nonglycosylated form of TREM2 (28 kDa) in the striatum (TREM2): significantly increased, reaching basal condition
